In this experiment the target is human PAD4 (hPAD4) (Homo sapiens (Human), UniProt Q9UM07). In words: RFMS Human PAD4 Functional Assay 1. The experiment is classed as biochemical. To be noted: RFMS assay 1; 5 nM hPAD4, 250 μM BAEE substrate, 50 μM calcium, 37° C. The essentials: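 Recombinant hPAD4 (5 nM) was preincubated with compound (top 50 μM, 0.5% DMSO) for 30 min at 37 °C, then reacted with 250 μM BAEE for 90 min at 37 °C in pH 7.5 HEPES buffer with 50 μM calcium and 5 μM TPEN. Product was derivatized with phenyl glyoxal and quantified by RapidFire MS.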
Chain of human PAD4 (hPAD4) (Q9UM07 whole entry): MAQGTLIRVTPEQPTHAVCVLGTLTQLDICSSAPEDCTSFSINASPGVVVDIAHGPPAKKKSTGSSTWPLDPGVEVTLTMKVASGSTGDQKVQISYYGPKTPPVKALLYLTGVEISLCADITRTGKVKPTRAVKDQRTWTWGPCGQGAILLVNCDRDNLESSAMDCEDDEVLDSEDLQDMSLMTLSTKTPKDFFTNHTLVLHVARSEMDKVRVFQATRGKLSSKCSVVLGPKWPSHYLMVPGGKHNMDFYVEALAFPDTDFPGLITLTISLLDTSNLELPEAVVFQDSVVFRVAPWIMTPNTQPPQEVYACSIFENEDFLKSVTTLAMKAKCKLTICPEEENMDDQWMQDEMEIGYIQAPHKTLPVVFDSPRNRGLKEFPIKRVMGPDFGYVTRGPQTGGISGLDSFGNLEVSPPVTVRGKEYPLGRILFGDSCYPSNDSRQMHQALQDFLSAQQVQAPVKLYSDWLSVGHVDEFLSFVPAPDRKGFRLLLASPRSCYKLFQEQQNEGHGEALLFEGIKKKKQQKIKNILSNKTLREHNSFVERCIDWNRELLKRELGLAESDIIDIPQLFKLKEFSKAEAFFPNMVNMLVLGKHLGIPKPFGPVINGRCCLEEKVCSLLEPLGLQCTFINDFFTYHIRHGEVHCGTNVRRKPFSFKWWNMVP

Each structure is given as a SMILES string.

With `Cc1c(-c2cc3ccc(-c4cccc(O)c4F)nc3n2CC2CC2)nn2cc(C(=O)N3C[C@H](N)C[C@@H](F)C3)ccc12` [Example 86, ((3R,5R)-3-Amino-5-fluoropiperidin-1-yl)(2-(1-(cyclopropylmethyl)-6-(2-fluoro-3-hydroxyphenyl)-1H-pyrrolo[2,3-b]pyridin-2-yl)-3-methylpyrazolo[1,5-a]pyridin-6-yl)methanone], the IC50 (in general, the concentration that inhibits the measured activity by half) came out at 219 nM.
`Cc1c(-c2cc3ccc(-c4ccc(O)c(F)c4)cc3n2CC2CC2)oc2cc(C(=O)N3CC4CCC3[C@@H]4N)ccc12` (stereo partly drawn) [Example 182, ((7R)-7-Amino-2-azabicyclo[2.2.1]heptan-2-yl)(2-(1-(cyclopropylmethyl)-6-(3-fluoro-4-hydroxyphenyl)-1H-indol-2-yl)-3-methylbenzofuran-6-yl)methanone]: the IC50 amounted to 923 nM.
For `Cc1c(-c2cc3ccc(N4CCOCC4)nc3n2CC2CC2)nn2cc(C(=O)N3CC4CCC3[C@@H]4N)cc(F)c12` (stereo partly drawn) [Example 266, (7R)-2-{2-[1-(Cyclopropylmethyl)-6-(morpholin-4-yl)-1H-pyrrolo[2,3-b]pyridin-2-yl]-4-fluoro-3-methylpyrazolo[1,5-a]pyridine-6-carbonyl}-2-azabicyclo[2.2.1]heptan-7-amine], the half-maximal inhibitory concentration (IC50) came out at 280 nM.
In the case of `COc1cc(C(=O)N2CCC[C@@H](N)C2)cn2nc(-c3cc4cccc(C5CCN(C(=O)[C@@H](C)OC)CC5)c4n3CC3CC3)c(C)c12` [Example 402, (R)-1-(4-(2-(6-((R)-3-Aminopiperidine-1-carbonyl)-4-methoxy-3-methylpyrazolo[1,5-a]pyridin-2-yl)-1-(cyclopropylmethyl)-1H-indol-7-yl)piperidin-1-yl)-2-methoxypropan-1-one], the IC50 came out at 60 nM.
The value for `COc1cc(C(=O)N2CCC[C@@H](N)C2)cn2nc(-c3cc4ccnc(OCCn5ccnc5)c4n3CC3CC3)c(C)c12` [Example 598, (R)-(2-(7-(2-(1H-Imidazol-1-yl)ethoxy)-1-(cyclopropylmethyl)-1H-pyrrolo[2,3-c]pyridin-2-yl)-4-methoxy-3-methylpyrazolo[1,5-a]pyridin-6-yl)(3-aminopiperidin-1-yl)methanone] was 20 nM; that for `Cc1c(-c2cc3ccc(-c4ccc5c(c4)C(=O)NC5)nc3n2CC2CC2)oc2cc(C(=O)N3C[C@H](N)C[C@@H](F)C3)ccc12` [Example 175, 6-(2-(6-((3R,5R)-3-Amino-5-fluoropiperidine-1-carbonyl)-3-methylbenzofuran-2-yl)-1-(cyclopropylmethyl)-1H-pyrrolo[2,3-b]pyridin-6-yl)isoindolin-1-one] was 830 nM; that for `COc1cc(C(=O)N2C[C@H](N)C[C@@H](F)C2)cn2nc(-c3cc4ccc(N5CC(F)(CO)C5)cc4n3CC3CC3)c(C)c12` [Example 37, ((3R,5R)-3-Amino-5-fluoropiperidin-1-yl)(2-(1-(cyclopropylmethyl)-6-(3-fluoro-3-(hydroxymethyl)azetidin-1-yl)-1H-indol-2-yl)-4-methoxy-3-methylpyrazolo[1,5-a]pyridin-6-yl)methanone] was 3610 nM.
Turning to `COc1cc(C(=O)N2CC3CCC2[C@@H]3N)cc2sc(-c3cc4ccc(-c5ccc6c(c5)CNC6=O)nc4n3CC3CC3)c(C)c12` (stereo partly drawn) [Example 132, 5-(2-(6-((7R)-7-Amino-2-azabicyclo[2.2.1]heptane-2-carbonyl)-4-methoxy-3-methylbenzo-[b]thiophen-2-yl)-1-(cyclopropylmethyl)-1H-pyrrolo[2,3-b]pyridin-6-yl)isoindolin-1-one], the IC50 is 476 nM.
For the compound `COCC(=O)N1CCC(c2cc(F)cc3cc(-c4nn5cc(C(=O)N6C[C@H](N)C[C@@H](F)C6)ccc5c4C)n(CC4CC4)c23)CC1` [Example 503, 1-(4-(2-(6-((3R,5R)-3-Amino-5-fluoropiperidine-1-carbonyl)-3-methylpyrazolo[1,5-a]pyridin-2-yl)-1-(cyclopropylmethyl)-5-fluoro-1H-indol-7-yl)piperidin-1-yl)-2-methoxyethan-1-one], the half-inhibitory concentration (IC50) amounted to 60 nM.
In the case of `Cc1c(-c2cc3ccc(C(C)(C)O)nc3n2CC2CC2)nn2cc(C(=O)N3CCC[C@@H](N)C3)ccc12` [Example 380, 2-(2-{6-[(3R)-3-Aminopiperidine-1-carbonyl]-3-methylpyrazolo[1,5-a]pyridin-2-yl}-1-(cyclopropylmethyl)-1H-pyrrolo[2,3-b]pyridin-6-yl)propan-2-ol], the IC50 was found to be 140 nM.
The value for `Cc1c(-c2cc3ccc(OCC4CNC(=O)C4)nc3n2CC2CC2)nn2cc(C(=O)N3CC4CCC3[C@@H]4N)cc(F)c12` (mixture of isomers) [Example 275, 4-{[(2-{6-[(7R)-7-Amino-2-azabicyclo[2.2.1]heptane-2-carbonyl]-4-fluoro-3-methylpyrazolo[1,5-a]pyridin-2-yl}-1-(cyclopropylmethyl)-1H-pyrrolo[2,3-b]pyridin-6-yl)oxy]methyl}pyrrolidin-2-one] was 120 nM; that for `COc1cc(C(=O)N2C[C@H](N)C[C@@H](F)C2)cn2nc(-c3cc4ccnc(OCCn5cnnc5)c4n3CC3CC3)c(C)c12` [Example 600, (2-(7-(2-(4H-1,2,4-Triazol-4-yl)ethoxy)-1-(cyclopropylmethyl)-1H-pyrrolo[2,3-c]pyridin-2-yl)-4-methoxy-3-methylpyrazolo[1,5-a]pyridin-6-yl)((3R,5R)-3-amino-5-fluoropiperidin-1-yl)methanone] was 30 nM; that for `COc1cc(C(=O)N2C[C@H](N)C[C@@H](F)C2)cn2nc(-c3cc4cccc(C5CCN(C(=O)[C@H]6CC[C@H](O)CC6)CC5)c4n3CC3CC3)c(C)c12` [Example 391, ((3R,5R)-3-Amino-5-fluoropiperidin-1-yl)(2-(1-(cyclopropylmethyl)-7-(1-((1r,4r)-4-hydroxycyclohexane-1-carbonyl)piperidin-4-yl)-1H-indol-2-yl)-4-methoxy-3-methylpyrazolo[1,5-a]pyridin-6-yl)methanone] was 10 nM.
With `COc1cc(C(=O)N2C[C@H](N)C[C@@H](F)C2)cn2nc(-c3cc4ccc(-c5ccn6c(C)nnc6c5)cc4n3CC3CC3)c(C)c12` [Example 31, ((3R,5R)-3-Amino-5-fluoropiperidin-1-yl)(2-(1-(cyclopropylmethyl)-6-(3-methyl-[1,2,4]triazolo[4,3-a]pyridin-7-yl)-1H-indol-2-yl)-4-methoxy-3-methylpyrazolo[1,5-a]pyridin-6-yl)methanone] the figure was 65 nM.
Regarding `COc1cc(C(=O)N2CC3CCC2[C@@H]3N)cc2oc(-c3cc4ccccc4n3CC3CC3)c(C)c12` (stereo partly drawn) [Example 148, ((7R)-7-Amino-2-azabicyclo[2.2.1]heptan-2-yl)(2-(1-(cyclopropylmethyl)-1H-indol-2-yl)-4-methoxy-3-methylbenzofuran-6-yl)methanone], the IC50 amounted to 442 nM.
Turning to `COc1cc(C(=O)N2CC3CCC2[C@@H]3N)cn2nc(-c3cc4ccc(-c5ccc(O)c(F)c5)nc4n3CC3CC3)c(C)c12` (stereo partly drawn) [Example 10, ((7R)-7-Amino-2-azabicyclo[2.2.1]heptan-2-yl)(2-(1-(cyclopropylmethyl)-6-(3-fluoro-4-hydroxyphenyl)-1H-pyrrolo[2,3-b]pyridin-2-yl)-4-methoxy-3-methylpyrazolo[1,5-a]pyridin-6-yl)methanone], the IC50 turned out to be 159 nM.
Regarding `COc1cc(C(=O)N2CCC[C@@H](N)C2)cn2nc(-c3cc4cccc(C5CN(C(=O)[C@H]6CC[C@H](O)CC6)C5)c4n3CC3CC3)c(C)c12` [Example 517, ((R)-3-Aminopiperidin-1-yl)(2-(1-(cyclopropylmethyl)-7-(1-((1r,4r)-4-hydroxycyclohexane-1-carbonyl)azetidin-3-yl)-1H-indol-2-yl)-4-methoxy-3-methylpyrazolo[1,5-a]pyridin-6-yl)methanone], the IC50 came out at 60 nM.
With `Cc1c(-c2cc3ccc(C(C)(O)C(F)(F)F)nc3n2CC2CC2)nn2cc(C(=O)N3C[C@H](N)C[C@@H](F)C3)ccc12` (single isomer, unassigned) [Example 107] the figure was 240 nM; with `COc1cc(C(=O)N2CCC[C@@H](N)C2)cn2nc(-c3cc4ccc(N5CCC(S(C)(=O)=O)CC5)cc4n3CC3CC3)c(C)c12` [Example 248, (3R)-1-{2-[1-(Cyclopropylmethyl)-6-(4-methanesulfonylpiperidin-1-yl)-1H-indol-2-yl]-4-methoxy-3-methylpyrazolo[1,5-a]pyridine-6-carbonyl}piperidin-3-amine], 60 nM; with `COc1cc(C(=O)N2C[C@H](N)C[C@@H](F)C2)cn2nc(-c3cc4ccc(-c5ccc(NS(C)(=O)=O)cc5)cc4n3CC3CC3)c(C)c12` [Example 216, N-[4-(2-{6-[(3R,5R)-3-Amino-5-fluoropiperidine-1-carbonyl]-4-methoxy-3-methylpyrazolo[1,5-a]pyridin-2-yl}-1-(cyclopropylmethyl)-1H-indol-6-yl)phenyl]methanesulfonamide], 270 nM.
`COc1cc(C(=O)N2C[C@H](N)C[C@@H](F)C2)cn2nc(-c3cc4ccc(-c5ccc6c(c5)CNC6=O)nc4n3CC3CC3)c(C)c12` [Example 20, 5-(2-(6-((3R,5R)-3-Amino-5-fluoropiperidine-1-carbonyl)-4-methoxy-3-methylpyrazolo[l,5-a]pyridin-2-yl)-1-(cyclopropylmethyl)-1H-pyrrolo[2,3-b]pyridin-6-yl)isoindolin-1-one]: the IC50 came out at 116 nM.
`CO[C@@H](C)C(=O)N1CCC(c2cccc3cc(-c4nn5cc(C(=O)N6C[C@H](N)C[C@@H](F)C6)cc(F)c5c4C)n(CC4CC4)c23)CC1` [Example 423, (S)-1-(4-(2-(6-((3R,5R)-3-Amino-5-fluoropiperidine-1-carbonyl)-4-fluoro-3-methylpyrazolo[1,5-a]pyridin-2-yl)-1-(cyclopropylmethyl)-1H-indol-7-yl)piperidin-1-yl)-2-methoxypropan-1-one]: the 50% inhibitory concentration (IC50) came to 150 nM.

Values taken from patent US12473304B2, “Heterocyclic PAD4 inhibitors” (BRISTOL-MYERS SQUIBB COMPANY, priority 2020, dated 2025).
